From ChEMBL document CHEMBL4371065, “Design and synthesis of biaryloxazolidinone derivatives containing a rhodanine or thiohydantoin moiety as novel antibacterial agents against Gram-positive bacteria” (Bioorg Med Chem Lett, 2019)
Converted amounts (≈) assume the structure as drawn.

Assays:
Staphylococcus aureus [1] = test: Antibacterial activity against Staphylococcus aureus ATCC 29213 by broth liquid microdilution method; format: functional
Staphylococcus aureus [2] = test: Antibacterial activity against methicillin-resistant Staphylococcus aureus by broth liquid microdilution method; format: functional
Staphylococcus aureus [3] = test: Antibacterial activity against methicillin-sensitive Staphylococcus aureus by broth liquid microdilution method; format: functional
Enterococcus faecalis [4] = test: Antibacterial activity against linezolid-resistant Enterococcus faecalis by broth liquid microdilution method; format: functional
Enterococcus faecium [5] = test: Antibacterial activity against vancomycin-resistant Enterococcus faecium by broth liquid microdilution method; format: functional
Staphylococcus aureus [6] = test: Antibacterial activity against clinical isolates of methicillin-sensitive Staphylococcus aureus by broth liquid microdilution method; format: functional
Enterococcus faecalis [7] = test: Antibacterial activity against clinical isolates of linezolid-resistant Enterococcus faecalis by broth liquid microdilution method; format: functional
Enterococcus faecium [8] = test: Antibacterial activity against clinical isolates of vancomycin-resistant Enterococcus faecium by broth liquid microdilution method; format: functional
HepG2 = test: Cytotoxicity against human HepG2 cells after 48 hrs by MTT assay; format: cell-based; settings: HepG2, 48 h
MAO-A = target: T1, MAO-A (Homo sapiens, UniProt P21397); test: Inhibition of recombinant human full length N-terminal FLAG-tagged MAO-A expressed in sf9 cells at 30 uM preincubated for 15 mins followed by substrate addition and measured after 60 mins by luminescence assay relative to control
T1 sequence (P21397 whole entry): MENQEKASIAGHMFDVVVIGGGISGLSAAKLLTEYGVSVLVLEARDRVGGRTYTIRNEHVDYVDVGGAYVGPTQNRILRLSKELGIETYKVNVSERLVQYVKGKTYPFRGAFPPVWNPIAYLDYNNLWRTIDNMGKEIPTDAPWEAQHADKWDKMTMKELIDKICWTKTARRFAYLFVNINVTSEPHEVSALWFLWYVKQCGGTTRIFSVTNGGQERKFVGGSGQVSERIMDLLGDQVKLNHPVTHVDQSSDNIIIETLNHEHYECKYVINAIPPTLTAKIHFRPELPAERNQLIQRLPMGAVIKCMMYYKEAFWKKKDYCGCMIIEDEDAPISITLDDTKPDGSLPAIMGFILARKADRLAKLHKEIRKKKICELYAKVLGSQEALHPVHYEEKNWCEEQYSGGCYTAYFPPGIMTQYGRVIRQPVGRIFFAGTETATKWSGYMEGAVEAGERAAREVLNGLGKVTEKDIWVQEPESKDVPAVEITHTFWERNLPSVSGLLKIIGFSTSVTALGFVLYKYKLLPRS

## CCN(CC)CCCN1C(=O)/C(=C/c2ccc(-c3ccc(N4C[C@H](CNC(C)=O)OC4=O)cc3F)cc2)SC1=S
Staphylococcus aureus [1]
  MIC: 0.5 µg/mL (≈ 0.855 µM)
Staphylococcus aureus [2]
  MIC: 0.5 µg/mL (≈ 0.855 µM)
Staphylococcus aureus [3]
  MIC: 0.5 µg/mL (≈ 0.855 µM)
Enterococcus faecalis [4]
  MIC: 0.5 µg/mL (≈ 0.855 µM)
Enterococcus faecium [5]
  MIC: 0.5 µg/mL (≈ 0.855 µM)

## CCN1C(=O)/C(=C/c2ccc(-c3ccc(N4C[C@H](CNC(C)=O)OC4=O)cc3F)cc2)SC1=S
Staphylococcus aureus [1]
  MIC: 0.25 µg/mL (≈ 0.5 µM)
Staphylococcus aureus [2]
  MIC: 0.25 µg/mL (≈ 0.5 µM)
Staphylococcus aureus [3]
  MIC: 0.25 µg/mL (≈ 0.5 µM)
Enterococcus faecalis [4]
  MIC: 0.5 µg/mL (≈ 1 µM)
Enterococcus faecium [5]
  MIC: 0.5 µg/mL (≈ 1 µM)

## CCN1C(=O)/C(=C/c2ccc(-c3ccc(N4C[C@H](CNC(C)=O)OC4=O)cc3F)cc2)NC1=S
Staphylococcus aureus [1]
  MIC: 0.25 µg/mL (≈ 0.518 µM)
Staphylococcus aureus [2]
  MIC: 0.25 µg/mL (≈ 0.518 µM)
Staphylococcus aureus [3]
  MIC: 0.25 µg/mL (≈ 0.518 µM)
Enterococcus faecalis [4]
  MIC: 0.25 µg/mL (≈ 0.518 µM)
Enterococcus faecium [5]
  MIC: 0.25 µg/mL (≈ 0.518 µM)

## CCCN1C(=O)/C(=C/c2ccc(-c3ccc(N4C[C@H](CNC(C)=O)OC4=O)cc3F)cc2)SC1=S
Staphylococcus aureus [1]
  MIC: 2 µg/mL (≈ 3.89 µM)
Staphylococcus aureus [2]
  MIC: 2 µg/mL (≈ 3.89 µM)
Staphylococcus aureus [3]
  MIC: 2 µg/mL (≈ 3.89 µM)
Enterococcus faecalis [4]
  MIC: 2 µg/mL (≈ 3.89 µM)
Enterococcus faecium [5]
  MIC: 2 µg/mL (≈ 3.89 µM)

## CCOC(=O)CN1C(=O)/C(=C/c2ccc(-c3ccc(N4C[C@H](CNC(C)=O)OC4=O)cc3F)cc2)NC1=S
Staphylococcus aureus [1]
  MIC: 1 µg/mL (≈ 1.85 µM)
Staphylococcus aureus [2]
  MIC: 1 µg/mL (≈ 1.85 µM)
Staphylococcus aureus [3]
  MIC: 1 µg/mL (≈ 1.85 µM)
Enterococcus faecalis [4]
  MIC: 1 µg/mL (≈ 1.85 µM)
Enterococcus faecium [5]
  MIC: 1 µg/mL (≈ 1.85 µM)

## CC(=O)NC[C@H]1CN(c2ccc(-c3ccc(/C=C4\NC(=S)N(C(C)C)C4=O)cc3)c(F)c2)C(=O)O1
Staphylococcus aureus [1]
  MIC: 1 µg/mL (≈ 2.01 µM)
Staphylococcus aureus [2]
  MIC: 1 µg/mL (≈ 2.01 µM)
Staphylococcus aureus [3]
  MIC: 1 µg/mL (≈ 2.01 µM)
Enterococcus faecalis [4]
  MIC: 0.5 µg/mL (≈ 1.01 µM)
Enterococcus faecium [5]
  MIC: 0.5 µg/mL (≈ 1.01 µM)

## CC(=O)NC[C@H]1CN(c2ccc(-c3ccc(/C=C4\NC(=S)NC4=O)cc3)c(F)c2)C(=O)O1
Staphylococcus aureus [1]
  MIC: 0.125 µg/mL (≈ 0.275 µM)
Staphylococcus aureus [2]
  MIC: 0.125 µg/mL (≈ 0.275 µM)
Staphylococcus aureus [3]
  MIC: 0.125 µg/mL (≈ 0.275 µM)
Enterococcus faecalis [4]
  MIC: 0.125 µg/mL (≈ 0.275 µM)
Enterococcus faecium [5]
  MIC: 0.125 µg/mL (≈ 0.275 µM)
Staphylococcus aureus [6]
  MIC: 0.5 to 1 µg/mL (≈ 1.1 to 2.2 µM)
Enterococcus faecalis [7]
  MIC: 0.25 to 0.5 µg/mL (≈ 0.55 to 1.1 µM)
Enterococcus faecium [8]
  MIC: 0.25 to 0.5 µg/mL (≈ 0.55 to 1.1 µM)
HepG2
  IC50: 61.7 µM
MAO-A
  inhibition at 1 h, 30 µM: 99%

## CC(=O)NC[C@H]1CN(c2ccc(-c3ccc(/C=C4\NC(=S)N(C)C4=O)cc3)c(F)c2)C(=O)O1
Staphylococcus aureus [1]
  MIC: 0.5 µg/mL (≈ 1.07 µM)
Staphylococcus aureus [2]
  MIC: 0.5 µg/mL (≈ 1.07 µM)
Staphylococcus aureus [3]
  MIC: 0.5 µg/mL (≈ 1.07 µM)
Enterococcus faecalis [4]
  MIC: 0.5 µg/mL (≈ 1.07 µM)
Enterococcus faecium [5]
  MIC: 0.5 µg/mL (≈ 1.07 µM)

## CCCN1C(=O)/C(=C/c2ccc(-c3ccc(N4C[C@H](CNC(C)=O)OC4=O)cc3F)cc2)NC1=S
Staphylococcus aureus [1]
  MIC: 2 µg/mL (≈ 4.03 µM)
Staphylococcus aureus [2]
  MIC: 2 µg/mL (≈ 4.03 µM)
Staphylococcus aureus [3]
  MIC: 2 µg/mL (≈ 4.03 µM)
Enterococcus faecalis [4]
  MIC: 2 µg/mL (≈ 4.03 µM)
Enterococcus faecium [5]
  MIC: 2 µg/mL (≈ 4.03 µM)

## CC(=O)NC[C@H]1CN(c2ccc(N3CCOCC3)c(F)c2)C(=O)O1 [LINEZOLID]
Staphylococcus aureus [1]
  MIC: 1 µg/mL (≈ 2.96 µM)
Staphylococcus aureus [2]
  MIC: 1 µg/mL (≈ 2.96 µM)
Staphylococcus aureus [3]
  MIC: 1 µg/mL (≈ 2.96 µM)
Enterococcus faecalis [4]
  MIC: > 16 µg/mL
Enterococcus faecium [5]
  MIC: 2 µg/mL (≈ 5.93 µM)
Staphylococcus aureus [6]
  MIC: 1 to 4 µg/mL (≈ 2.96 to 11.9 µM)
Enterococcus faecalis [7]
  MIC: > 16 µg/mL
Enterococcus faecium [8]
  MIC: 1 to 4 µg/mL (≈ 2.96 to 11.9 µM)
HepG2
  IC50: > 25 µM
MAO-A
  inhibition at 1 h, 30 µM: 76%

## CC(=O)NC[C@H]1CN(c2ccc(-c3ccc(CNCc4cnn[nH]4)cc3)c(F)c2)C(=O)O1 [RADEZOLID]
Staphylococcus aureus [1]
  MIC: 0.5 µg/mL (≈ 1.14 µM)
Staphylococcus aureus [2]
  MIC: 0.5 µg/mL (≈ 1.14 µM)
Staphylococcus aureus [3]
  MIC: 0.5 µg/mL (≈ 1.14 µM)
Enterococcus faecalis [4]
  MIC: 0.5 µg/mL (≈ 1.14 µM)
Enterococcus faecium [5]
  MIC: 0.5 µg/mL (≈ 1.14 µM)
